The source of these data is patent publication US6649797B2, “Compounds and methods of use to treat infectious diseases” (The Picower Institute for Medical Research, priority 1996, dated 2003).

Several values for one entry are separate records, joined by “and”; a condition that tells them apart may be missing. Identical values can stand only once. Like-named read-outs stand apart in the source and are kept apart here.

One data set addresses HIV-1 RT (Human immunodeficiency virus type 1 group M subtype B, UniProt P04585). As to the kind of experiment: Enzymatic activity of HIV-1 RT in vitro. The data set is classed as biochemical.
Data set [1] has as its target T1, MA associated with the HIV-1 pre-integration complex (Human immunodeficiency virus type 1 group M subtype B, UniProt P05890+P05959).
T1 construct: MA is made from the Gag precursor and RT is made from the Gag-Pol precursor; endogenous in cells; host or cells: cytoplasmic extract of H9 cells infected with HIV-1RF
As to the kind of experiment: Reaction of [14C]CNI-H0294 with MA in HIV-1 pre-integration complexes after borohydride reduction. It counts as binding. Conditions: 10 μM [14C]-CNI-H0294, borohydride reduction, HIV-1-infected cell extracts. As to the method:
Cytoplasmic extracts from HIV-1RF-infected H9 cells were treated with [^14C]CNI-H0294 (10 μM). After borohydride reduction the extracts were immunoprecipitated with anti-MA (αMA), anti-IN (αIN), or pre-immune serum (PI). […] Immunoprecipitated radioactivity was quantified in a scintillation counter.
Cytoplasmic lysates prepared from HIV-1-infected cells were treated with 10 μM of [^14C]-labeled CNI-H0294 (specific activity 5×10^4 cpm/nmol) in 1 ml extraction buffer adjusted to 0.14 M NaCl. Sodium borohydride was then added to a final concentration 10 mM and samples were incubated 1 hr at room temperature prior to immunoprecipitation to reduce double bonds of Schiff bases to an irreversible secondary amine. Immunoprecipitation was performed as described above, but beads were stringently washed three times with PBS supplemented with 0.1% SDS, 1% sodium deoxycholate, 1 μg/ml each of aprotinin and leupeptin, and 1 mM PMSF.
To discriminate between these two possibilities, cytoplasmic extracts of HIV-1-infected cells were treated with [^14C]-CNI-H0294 and then with sodium borohydride, to reduce the reversible Schiff bases hypothesized to form between the compound and the lysines of MA NLS and convert the attached drug molecules to irreversible adducts. […] Without borohydride treatment, no radioactivity was immunoprecipitated with MA.

Data set [2] can be described thus: Pharmacokinetics in mice (plasma, HPLC). The data set is classed as in vivo, mouse. To be noted: for AUC / Cmax / bioavailability / Tmax / A (zero time intercept of the distribution phase) / B (zero time intercept of the elimination phase) / Cltot / VD / t1/2α / t1/2β / α / β: mouse.
Procedure: Standard addition curves for each test compound were constructed by adding increased amounts of drug to mouse or human A^+ plasma (Long Island Blood Services; Melville, N.Y). […] The column was washed with 1.0 ml of water and then eluted with 1.0 ml of 10 mM tetramethylammonium chloride/10 mM heptane sulfonate/4.2 mM H3PO4/95% CH3CN/5% H2O (Buffer C). The eluted sample was reduced to dryness in a rotary evaporator and resuspended in 1.0 ml Buffer A.
Two hundred μl of the resuspended sample was injected onto a Hewlett-Packard model 1090 high performance liquid chromatography system (HPLC)(Wilmington, Del.) equipped with a photodiode array ultraviolet/visible spectrophotometric detector, autosampler, and Chemstation operating software. The column used was a 250×4.6 mm Zorbax RX-C8 column (Mac-Mod Analyticals; Chadd's Ford, Pa.) kept at room temperature and run at 1.5 ml/min. The mobile phase used was Buffer A and 10 mM tetramethylammonium chloride/10 mM heptane sulfonate/4.2 mM H3PO4/75% CH3CN/25% H2O (Buffer B), with all runs initiated at 10% Buffer B. A linear 30 min gradient to 60% Buffer B was then performed, followed by a 4 min reverse gradient to initial conditions.
Female ND4 Swiss Webster mice (21-24 g) were obtained from Harlan Sprague Dawley (Indianapolis, Ind.) and randomly placed in groups of five in cages with free access to food and water. […] The other CNI compounds were administered intraperitoneally or by oral gavage as a solution in water titrated with sufficient HCl to dissolve the drug. At various time points, ranging from 5 min to 4 days, a single group of animals was euthanized by carbon dioxide inhalation and bled by cardiac puncture using heparin as an anticoagulant. The blood from the five mice in the group was pooled and centrifuged at 14000× g for 10 min. The volume of plasma was measured, and equal volume of Buffer A added, and the mixture extracted and analyzed as described above, except that the dried eluates were resuspended in 200 μl Buffer A and 100 μl was injected onto the high performance liquid chromatography (HPLC) system.
The area under the plasma concentration-time curve (AUC) was determined, and bioavailability was measured as AUCoral/AUCi.p. A and B represent the zero time intercept of the distribution and elimination phases respectively, and a and β the respective slopes of the phases multiplied by 2.303. The t/2α and t1/2β are calculated half-lives of the drug in each phase (0.693/α and 0.693/β respectively). The volume of distribution (VD) was calculated as dose/B, and the total clearance rate (Cltot) calculated as β*VD. Cmax and tmax are the maximal plasma concentration and time of this measurement, respectively.
The next data set concerns HIV-1ADA. As to the kind of experiment: HIV-1ADA replication in purified monocytes, RT activity in supernatant (FIG. 2). It counts as cell-based. Conditions: Human immunodeficiency virus 1, Monocyte, monocytes without M-CSF. As to the method: FIGS. 2A-C. The effect of various concentrations of Compound No. 2 on RT activity in the supernatant of HIV-1-infected monocytes. FIG. 2A: Multiplicity of Infection (MOI) 1 ng p24/10^6 monocytes, culture d in presence of M-CSF. FIG. 2B: MOI 8 ng p24/10^6 monocytes, cultured in absence of M-CSF. FIG. 2C: MOI 0.8 ng p24/10^6 monocytes, cultured in absence of M-CSF.
The cultures were treated with none or between 10^−12 and 10^−6 M Compound No. 2 and, simultaneously with the beginning of treatment, the cells were exposed to the monocyte-tropic strain HIV-1ADA at about 0.01 TCID50/cell (1 ng p24/10^6 cells) for 2 hours. Samples were withdrawn at days 3, 6, 10, 14 and 17 after infection and assayed for reverse transcription activity.
FIGS. 2B and 2C show the effects of various concentrations of Compound No. 2 on the production of HIV-1 in monocyte cultures not supplemented with M-CSF. In these studies MOI, as determined by concentration of p24 antigen was; FIG. 2B (8 ng/10^6 cells) and FIG. 2C (0.8 ng/10^6 cells).
Primary human monocytes were obtained from peripheral blood by Ficoll-Hypaque centrifugation and adherence to plastic as described previously. Gartner S. P., et al., 1986, Science 233:215. […]
Virus stock and infection. […] The concentration of HIV-1 was determined by immunoassay of viral p24, concentration; using a conversion factor of 1 ng/200 HIV-1 particles. […]

[3] abbreviates: female, ND4 Swiss Webster, plasma, ip, 50 mg/kg, vehicle DMSO/peanut oil.
The mark [4] stands for this setting: female, ND4 Swiss Webster, plasma, ip, 50 mg/kg, vehicle water.
Where [5] appears, read: female, ND4 Swiss Webster, plasma, po, 50 mg/kg, vehicle DMSO/peanut oil.
Where [6] appears, read: i.p., 50 mg/kg, vehicle DMSO/peanut oil.

Consider `CC(=O)c1cc(Nc2cc(C)[n+](C)c(N)n2)cc(C(C)=O)c1` [CNI-0294, 2-Amino-4-(3,5-diacetylphenyl)amino-1,6-dimethylpyrimidinium chloride], for which the “block of enzymatic activity of HIV-1 RT in vitro” value on HIV-1 RT (concentrations up to 50 μM) is given as “nor did it block in concentrations up to 50 μM the enzymatic activity of HIV-1 RT in vitro”. Also, the “radioactivity immunoprecipitated by anti-MA serum” value in data set [1] was “a significant amount of radioactivity was immunoprecipitated by anti-MA serum”. In data set [2] (setting [3]), the AUC – broadly, concentration integrated over time – was found to be 9150 ng·h/mL and the highest level (Cmax) was 18800 ng/mL. In data set [2] (setting [4]), the AUC was 8830 ng·h/mL and the peak level (Cmax) was 18900 ng/mL. Further, the bioavailability (usually dose-corrected exposure relative to a reference, in per cent) in data set [2] (female, ND4 Swiss Webster, plasma, oral, mice, single 50 mg/kg dose, AUCoral against AUCi.p., read-out: relative bioavailability) amounted to 6%. In data set [2] (setting [5]), the AUC stood at 560 ng·h/mL and the Cmax (as a rule, the peak of the concentration-time curve) was 410 ng/mL. Besides, in data set [2] (female, ND4 Swiss Webster, plasma, ip, i.p., 50 mg/kg, vehicle DMSO/peanut oil, read-out: tmax (converted)), the Tmax (in general, the time from dosing to the highest level) was 5 min. In data set [2] (female, ND4 Swiss Webster, plasma, oral, 50 mg/kg, vehicle DMSO/peanut oil, AUCoral/AUCi.p., read-out: Bioavailability), the bioavailability came to 6%. Further, in data set [2] (female, ND4 Swiss Webster, plasma, oral, 50 mg/kg, vehicle DMSO/peanut oil, read-out: tmax (converted)), the Tmax was 60 min. Besides, the maximal plasma level in data set [2] (mice, oral, single 50 mg/kg dose) was determined as 0.4 µg/mL. Further, the maximal plasma level in data set [2] (mice, single i.p. injection (50 mg/kg; CNI-1594 20 mg/kg)) was 18.76 µg/mL and 18.76 to 18.93 µg/mL. Further, in data set [2] (setting [6]), the “A (zero time intercept of the distribution phase)” value came to 14.00 µg/mL, the “B (zero time intercept of the elimination phase)” value was 0.07 µg/mL, the Cltot amounted to 35.35 mL/min and the VD is on record as 14.14 L. In data set [2] (setting [6]), this compound gave a t1/2α of 37.2 min, a t1/2β of 277 min, a α of 1.12 h⁻¹ and a β of 0.15 h⁻¹. Also, in data set [2] (i.p., 50 mg/kg, vehicle water), the “A (zero time intercept of the distribution phase)” value is 16.07 µg/mL, the “B (zero time intercept of the elimination phase)” value was 0.05 µg/mL, the Cltot turned out to be 62.70 mL/min and the Tmax is reported as 5 min. In data set [2] (i.p., 50 mg/kg, vehicle water), the VD is 19.80 L, the t1/2α came out at 24 min, the t1/2β is 219 min and the α came to 1.74 h⁻¹. This compound registered a β in data set [2] (i.p., 50 mg/kg, vehicle water) of 0.19 h⁻¹.

With `CC(=O)c1cc(Nc2cc(C)[n+](C)c(N)n2)cc(C(C)=O)c1.[I-]` [Compound No. 2, 2-amino-4-(3,5-diacetylphenyl)amino-1,6-dimethylpyrimidinium iodide], the “inhibition of reverse transcriptase” value against HIV-1 RT (data not shown) is “does not inhibit reverse transcriptase”. In data set [2] (calculated from clearance for target serum conc. (No. 2: 10 nM; No. 11: 50 nM; No. 15: 15 nM)), the Dose is listed as 6.80 mg/Kg day. Moreover, the half-inhibitory concentration (IC50) – broadly, the concentration at which inhibition is half-maximal – with HIV-1ADA (MOI 0.8 ng p24/10^6 cells (FIG. 2C)) was less than 1 nM; with HIV-1ADA (MOI 8 ng p24/10^6 cells (FIG. 2B)), approximately 10 nM.
